US9718792B2, “Isoxazoline hydroxamic acid derivatives as LpxC inhibitors” (priority 2014, dated 2017)
Converted amounts (≈) assume the structure as drawn. Read-outs that look alike come from different tables or passages of the source.

How the values were obtained:
P. aeruginosa PAO1 = test: Susceptibility Testing (MIC, broth microdilution); format: cell-based, Pseudomonas aeruginosa; conditions: P. aeruginosa PAO1, broth microdilution, 20 hours; for MIC: Pseudomonas aeruginosa, PAO1, 20 h, read-out: PAO1 MIC
Description: Bacterial isolates were cultivated from −70° C. frozen stocks by two consecutive overnight passages at 35° C. in ambient air on 5% blood agar (Remel, Lenexa, Kans.). Quality control and P. aeruginosa ATCC 27853) is from the American Type Culture Collection (ATCC; Rockville, Md.) and PAO1 was received from Dr. K. Poole.
Minimal Inhibitory Concentrations (MICs) were determined by the broth microdilution method in accordance with Clinical and Laboratories Institute (CLSI) guidelines. In brief, fresh bacterial overnight cultures were resuspended in sterile saline, adjusted to a 0.5 McFarland turbidity standard and then diluted […] in cation adjusted Mueller-Hinton Broth II (MHB; Remel BBL) to yield a final inoculum of approximately 5×10^5 colony-forming units (CFU)/mL. Two-fold serial dilutions of compounds were prepared in 100% dimethyl sulfoxide (DMSO) at 100-fold the highest final assay concentration; the resulting dilution series of compounds were diluted 1:10 with sterile water. Ten μl of the drug dilution series in 10% DMSO was transferred to microtiter wells and 90 μl of bacterial suspension was inoculated into the wells. All inoculated microdilution trays were incubated in ambient air at […] for 20 hours. Following incubation, assay plates were read in a microtiter plate reader at 600 nm and visually inspected to confirm the MIC endpoint well with the OD value. The lowest concentration of the compound that prevented visible growth was recorded as the MIC. Performance of the assay was monitored by testing ciprofloxacin against laboratory quality control strains in accordance with guidelines of the CLSI.

P. aeruginosa LpxC = P. aeruginosa LpxC (Pseudomonas aeruginosa (strain ATCC 15692 / DSM 22644 / CIP 104116 / JCM 14847 / LMG 12228 / 1C / PRS 101 / PAO1), UniProt P47205); test: P. aeruginosa LpxC Inhibition Assay; format: biochemical; conditions: 2 μM substrate, LC-MS/MS
Text: The P. aeruginosa LpxC protein is produced according to the general method of Hyland et al (Journal of Bacteriology 1997 179, 2029-2037: Cloning, expression and purification of UDP-3-O-acyl-GIcNAc deacetylase from Pseudomonas aeruginosa: a metalloamidase of the lipid A biosynthesis pathway). The LC-MS/MS method for quantitation of LpxC product was developed using an Agilent 1200 Capillary HPLC system coupled to an Applied Biosystems MDS Sciex 4000QTRAP mass spectrometer. Both instruments are controlled using the Applied Biosystems MDS Sciex Analyst software. LpxC reaction product (UDP-3-O—(R-3-hydroxyacyl)-glucosamine) was produced by hydrolysis of LpxC substrate catalyzed by P.a. LpxC and purified using reversed phase chromatography on a Phenomenex Luna C18(2) 4.6×50 mm column. An LpxC product calibration curve was generated to evaluate the sensitivity and dynamic range of the LC-MS/MS method. Briefly, compounds are pre-incubated with 1 nM P. aeruginosa LpxC for 30 min. at room temperature. Reactions are initiated by the addition of 2 μM UDP-3-O—(R-3-hydroxydecanoyl)-GIcNAc. Reactions are conducted in a 384-well plate with a total volume of 50 μL in each well containing 50 mM Sodium phosphate pH 7.5, 0.005% Trition X-100 for 20 min at room temperature. After quenching with 1.8% HOAc (5 μL of a 20% HOAc added to each well), reaction mixtures are analyzed using the LC-MS/MS method and peak areas are transformed into product concentration using a LpxC product calibration curve. Total activity (0% inhibition control) is obtained from reactions with no inhibitors and 100% inhibition control is the background using quenched samples before reaction starts. For IC50 determinations, peak areas are converted to percent inhibition in Microsoft Excel. Percent inhibition values are plotted vs. log compound concentration using XLfit. Data is fit to the four-parameter logistic equation using the non-linear regression algorithm in XLfit to return the IC50 and hill slope values.

[1] = 1 nM P. aeruginosa LpxC, read-out: PA LpxC IC50

MIC (P. aeruginosa PAO1) [µg/mL]	IC50 (P. aeruginosa LpxC; [1]) [nM]	PAO1 MIC (P. aeruginosa PAO1) [µg/mL]	Compound	IC50 (P. aeruginosa LpxC; PA LpxC IC50, 1 nM P. aeruginosa LpxC) [nM]
0.18 (≈ 0.389 µM)	0.7	–	C[C@@](C[C@H]1CC(c2ccc(-c3ccc(OCCO)cc3)cc2)=NO1)(C(=O)NO)S(C)(=O)=O [Compound 50, (R)—N-hydroxy-3-((R)-3-(4′-(2-hydroxyethoxy)-[1,1′-biphenyl]-4-yl)-4,5-dihydroisoxazol-5-yl)-2-methyl-2-(methylsulfonyl)]	–
1.4 (≈ 2.85 µM)	0.8	–	COCC(C)(O)c1ccc(-c2ccc(C3=NO[C@@H](C[C@](C)(C(=O)NO)S(C)(=O)=O)C3)cc2)cc1 (stereo partly drawn) [Compound 51, (2R)—N-hydroxy-3-((5R)-3-(4′-(2-hydroxy-1-methoxypropan-2-yl)-[1,1′-biphenyl]-4-yl)-4,5-dihydroisoxazol-5-yl)-2-methyl-2-(methylsulfonyl)propanamide]	–
1 (≈ 2.23 µM)	0.8	–	COCC1CC(C#Cc2ccc(C3=NO[C@@H](C[C@](C)(C(=O)NO)S(C)(=O)=O)C3)cc2)C1 (stereo partly drawn) [Compound 52, (R)—N-hydroxy-3-((R)-3-(4-((3-(methoxymethyl)cyclobutyl)ethynyl)phenyl)-4,5-dihydroisoxazol-5-yl)-2-methyl-2-(methylsulfonyl)propanamide]	–
–	0.5	0.5	COCC1CC(C#Cc2ccc(C3=NO[C@@H](C[C@](C)(C(=O)NO)S(C)(=O)=O)C3)cc2)C1 (stereo partly drawn) [Compound 53, (R)—N-hydroxy-3-((R)-3-(4-((3-(methoxymethyl)cyclobutyl)ethynyl)phenyl)-4,5-dihydroisoxazol-5-yl)-2-methyl-2-(methylsulfonyl)propanamide]	–
1 (≈ 2.37 µM)	0.7	–	C[C@@](C[C@H]1CC(c2ccc(C#CC3CC(F)C3)cc2)=NO1)(C(=O)NO)S(C)(=O)=O (stereo partly drawn) [Compound 54, (R)-3-((R)-3-(4-((3-fluorocyclobutyl)ethynyl)phenyl)-4,5-dihydroisoxazol-5-yl)-N-hydroxy-2-methyl-2-(methylsulfonyl) propanamide]	–
0.5 (≈ 1.13 µM)	< 0.5	–	C[C@@](C[C@H]1CC(c2ccc(C#CC3CC(CC#N)C3)cc2)=NO1)(C(=O)NO)S(C)(=O)=O (stereo partly drawn) [Compound 55, (R)-3-((R)-3-(4-((3-(cyanomethyl)cyclobutyl)ethynyl)phenyl)-4,5-dihydroisoxazol-5-yl)-N-hydroxy-2-methyl-2-(methylsulfonyl)propanamide]	–
0.25 (≈ 0.56 µM)	1	–	C[C@H](O)c1ccc(-c2ccc(C3=NO[C@@H](C[C@](C)(C(=O)NO)S(C)(=O)=O)C3)cc2)cc1 [Compound 56, (R)—N-hydroxy-3-((R)-3-(4′-((S)-1-hydroxyethyl)-[1,1′-biphenyl]-4-yl)-4,5-dihydroisoxazol-5-yl)-2-methyl-2-(methylsulfonyl)]	–
1 (≈ 2.31 µM)	< 0.5	–	C[C@@](C[C@H]1CC(c2ccc(-c3cccc(CO)c3)cc2)=NO1)(C(=O)NO)S(C)(=O)=O [Compound 57, (R)—N-hydroxy-3-((R)-3-(3′-(hydroxymethyl)-[1,1′-biphenyl]-4-yl)-4,5-dihydroisoxazol-5-yl)-2-methyl-2-(methylsulfonyl)]	–
0.5 (≈ 1.04 µM)	< 0.5	–	C[C@@](C[C@H]1CC(c2ccc(-c3ccc(S(C)(=O)=O)cc3)cc2)=NO1)(C(=O)NO)S(C)(=O)=O [Compound 58, (R)—N-hydroxy-2-methyl-2-(methylsulfonyl)-3-((R)-3-(4′-(methylsulfonyl)-[1,1-biphenyl]-4-yl)-4,5-dihydroisoxazol-5-yl)]	–
0.35 (≈ 0.777 µM)	< 0.5	–	COc1ccc(-c2ccc(C3=NO[C@@H](C[C@](C)(C(=O)NO)S(C)(=O)=O)C3)cc2)c(F)c1 [Compound 59, (R)-3-((R)-3-(2′-fluoro-4′-methoxy-[1,1′-biphenyl]-4-yl)-4,5-dihydroisoxazol-5-yl)-N-hydroxy-2-methyl-2-(methylsulfonyl)]	–
0.25 (≈ 0.51 µM)	< 0.5	–	COC[C@H](O)Cc1ccc(-c2ccc(C3=NO[C@@H](C[C@](C)(C(=O)NO)S(C)(=O)=O)C3)cc2)cc1 [Compound 60, (R)—N-hydroxy-3-((R)-3-(4′-((R)-2-hydroxy-3-methoxypropyl)-[1,1′-biphenyl]-4-yl)-4,5-dihydroisoxazol-5-yl)-2-methyl-2-(methylsulfonyl)propanamide]	–
0.33 (≈ 0.872 µM)	< 0.5	–	CCC#Cc1ccc(C2=NO[C@@H](C[C@](C)(C(=O)NO)S(C)(=O)=O)C2)cc1 [Compound 62, (R)-3-((R)-3-(4-(but-1-yn-1-yl)phenyl)-4,5-dihydroisoxazol-5-yl)-N-hydroxy-2-methyl-2-(methylsulfonyl)propanamide]	–
0.25 (≈ 0.53 µM)	< 0.5	–	C[C@@](C[C@H]1CC(c2ccc(-c3ccc(C(F)(F)F)nc3)cc2)=NO1)(C(=O)NO)S(C)(=O)=O [Compound 64, (R)—N-hydroxy-2-methyl-2-(methylsulfonyl)-3-((R)-3-(4-(6-(trifluoromethyl)pyridin-3-yl)phenyl)-4,5-dihydroisoxazol-5-yl)propanamide]	–
1 (≈ 2.31 µM)	< 0.5	–	C[C@@](C[C@H]1CC(c2ccc(-c3ccc(CO)nc3)cc2)=NO1)(C(=O)NO)S(C)(=O)=O [Compound 65, (R)—N-hydroxy-3-((R)-3-(4-(6-(hydroxymethyl)pyridin-3-yl)phenyl)-4,5-dihydroisoxazol-5-yl)-2-methyl-2-(methylsulfonyl)propanamide]	–
0.25 (≈ 0.577 µM)	< 0.5	–	COc1ccc(-c2ccc(C3=NO[C@@H](C[C@](C)(C(=O)NO)S(C)(=O)=O)C3)cc2)cn1 [Compound 66, (R)—N-hydroxy-3-((R)-3-(4-(6-methoxypyridin-3-yl)phenyl)-4,5-dihydroisoxazol-5-yl)-2-methyl-2-(methylsulfonyl)propanamide]	–
0.35 (≈ 0.838 µM)	< 0.5	–	Cc1ccc(-c2ccc(C3=NO[C@@H](C[C@](C)(C(=O)NO)S(C)(=O)=O)C3)cc2)cn1 [Compound 67, (R)—N-hydroxy-2-methyl-3-((R)-3-(4-(6-methylpyridin-3-yl)phenyl)-4,5-dihydroisoxazol-5-yl)-2-(methylsulfonyl) propanamide]	–
0.71 (≈ 1.51 µM)	< 0.5	–	CC(C)(C#N)c1ccc(-c2ccc(C3=NO[C@@H](C[C@](C)(C(=O)NO)S(C)(=O)=O)C3)cc2)cc1 [Compound 69, (R)-3-((R)-3-(4′-(2-cyanopropan-2-yl)-[1,1′-biphenyl]-4-yl)-4,5-dihydroisoxazol-5-yl)-N-hydroxy-2-methyl-2-(methylsulfonyl)propanamide]	–
8 (≈ 17 µM)	2	–	C[C@@](C[C@H]1CC(c2ccc(-c3ccnc(C(F)(F)F)c3)cc2)=NO1)(C(=O)NO)S(C)(=O)=O [Compound 70, (R)—N-hydroxy-2-methyl-2-(methylsulfonyl)-3-((R)-3-(4-(2-(trifluoromethyl)pyridin-4-yl)phenyl)-4,5-dihydroisoxazol-5-yl)]	–
0.71 (≈ 1.65 µM)	6	–	CCc1cc(-c2ccc(C3=NO[C@@H](C[C@](C)(C(=O)NO)S(C)(=O)=O)C3)cc2)ccn1 [Compound 71, (R)-3-((R)-3-(4-(2-ethylpyridin-4-yl)phenyl)-4,5-dihydroisoxazol-5-yl)-N-hydroxy-2-methyl-2-(methylsulfonyl)propanamide]	–

Compound	MIC (P. aeruginosa PAO1) [µg/mL]	IC50 (P. aeruginosa LpxC; [1]) [nM]	PAO1 MIC (P. aeruginosa PAO1) [µg/mL]	IC50 (P. aeruginosa LpxC; PA LpxC IC50, 1 nM P. aeruginosa LpxC) [nM]
Cn1cc(-c2ccc(C3=NO[C@@H](C[C@](C)(C(=O)NO)S(C)(=O)=O)C3)cc2)ccc1=O [Compound 68, (R)—N-hydroxy-2-methyl-3-((R)-3-(4-(1-methyl-6-oxo-1,6-dihydropyridin-3-yl)phenyl)-4,5-dihydroisoxazol-5-yl)-2-(methylsulfonyl)propanamide]	16 (≈ 36.9 µM)	–	–	2
